15 compounds from patent US8633315B2, “Substituted hydroxyethyl amine compounds as beta-secretase modulators and methods of use” (Amgen Inc., priority 2007, dated 2014) can be followed below.

Test [1] concerns Cells stably expressing Amyloid Precursor Protein (APP). Kind of test: In vitro BACE cell-based assay (HEK cell assay): Aβ40 in conditioned medium by sandwich ELISA. The settings on record: Homo sapiens, Aβ40 in conditioned medium after 24 h incubation. Put shortly: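 Secreted Aβ40 was quantified by time-resolved fluorescence sandwich ELISA, capturing with pAb40 for 3 h at 4 °C and detecting with biotinylated 6E10 for 2 h at 4 °C. Media came from APP-expressing cells exposed 24 h to compounds (10-point series from 100 or 10 μM, 0.1% DMSO); IC50 derived from percent of control.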

In test [2] the target is BACE1 (Homo sapiens, UniProt P56817). Put plainly: In vitro enzymatic BACE FRET (fluorescence resonance energy transfer) assay. The test is classed as biochemical. Put shortly:
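Fluorescence (ex 488 nm, […]) was read after Tris addition raised pH to neutral, ending a one-hour incubation. Reaction started with 50 nM fluorophore/quencher peptide substrate in pH 4.2 acetate (0.05 M) containing 100 uM genapol and 10% DMSO final.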

BACE1, sequence (P56817 46-501, species assumed): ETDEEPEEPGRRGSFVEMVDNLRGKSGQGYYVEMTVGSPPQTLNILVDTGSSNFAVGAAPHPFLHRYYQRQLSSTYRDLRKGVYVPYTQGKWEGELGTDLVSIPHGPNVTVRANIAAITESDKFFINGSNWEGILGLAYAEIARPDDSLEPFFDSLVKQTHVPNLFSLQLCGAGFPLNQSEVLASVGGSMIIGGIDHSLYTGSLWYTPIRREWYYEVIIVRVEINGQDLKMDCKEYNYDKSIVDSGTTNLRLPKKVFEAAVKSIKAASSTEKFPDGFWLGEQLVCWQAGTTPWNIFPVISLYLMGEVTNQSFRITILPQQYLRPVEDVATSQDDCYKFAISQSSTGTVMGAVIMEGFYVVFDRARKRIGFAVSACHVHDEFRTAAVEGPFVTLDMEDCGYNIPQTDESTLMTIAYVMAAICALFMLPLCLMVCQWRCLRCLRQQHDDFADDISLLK

On to `CC(=O)N[C@@H](CC=C1CCC1)[C@H](O)CN[C@H]1CC2(CCC2)Oc2ncc(CC(C)(C)C)cc21` [Example 83, N-((1S,2R)-1-(2-cyclobutylideneethyl)-3-(((4′S)-6′-(2,2-dimethylpropyl)-3′,4′-dihydrospiro[cyclobutane-1,2′-pyrano[2,3-b]pyridin]-4′-yl)amino)-2-hydroxypropyl)acetamide], for which the IC50 in test [1] (HEK293, 24 h) worked out at 18 nM; in test [2], 11 nM.
For `C#CC[C@H](NC(C)=O)[C@H](O)CN[C@H]1CC2(CCC2)Oc2ncc(CC(C)(C)C)cc21` [Example 84, N-((1S)-1-((1R)-2-(((4′S)-6′-(2,2-dimethylpropyl)-3′,4′-dihydrospiro[cyclobutane-1,2′-pyrano[2,3-b]pyridin]-4′-yl)amino)-1-hydroxyethyl)-3-butyn-1-yl)acetamide], the IC50 in test [1] (HEK293, 24 h) turned out to be 222 nM; in test [2], 40 nM.
For `C#CC[C@H](NC(=O)COC)[C@H](O)CN[C@H]1CC2(CCC2)Oc2ncc(CC(C)(C)C)cc21` [Example 85, N-((1S)-1-((1R)-2-(((4′S)-6′-(2,2-dimethylpropyl)-3′,4′-dihydrospiro[cyclobutane-1,2′-pyrano[2,3-b]pyridin]-4′-yl)amino)-1-hydroxyethyl)-3-butyn-1-yl)-2-(methyloxy)acetamide] the same measures were 511 nM and 49 nM.
For `CC#CC[C@H](NC(C)=O)[C@H](O)CN[C@H]1CC2(CCC2)Oc2ncc(CC(C)(C)C)cc21` [Example 86, N-((1S)-1-((1R)-2-(((4′S)-6′-(2,2-dimethylpropyl)-3′,4′-dihydrospiro[cyclobutane-1,2′-pyrano[2,3-b]pyridin]-4′-yl)amino)-1-hydroxyethyl)-3-pentyn-1-yl)acetamide] the same measures were 104 nM and 69 nM.
With `C=CC[C@H](NC(=O)C(F)(F)F)[C@H](O)CN[C@H]1CC2(CCC2)Oc2ncc(CC(C)(C)C)cc21` [Example 94, N-((1S)-1-((1R)-2-(((4′S)-6′-(2,2-dimethylpropyl)-3′,4′-dihydrospiro[cyclobutane-1,2′-pyrano[2,3-b]pyridin]-4′-yl)amino)-1-hydroxyethyl)-3-buten-1-yl)-2,2,2-trifluoroacetamide], the 50% inhibitory concentration (IC50) is 154 nM in test [1] (HEK293, 24 h) and 73 nM in test [2].
As for `C=CC[C@H](NC(=O)[C@H](C)OC)[C@H](O)CN[C@H]1CC2(CCC2)Oc2ncc(CC(C)(C)C)cc21` [Example 95, (2S)-N-((1S)-1-((1R)-2-(((4′S)-6′-(2,2-dimethylpropyl)-3′,4′-dihydrospiro[cyclobutane-1,2′-pyrano[2,3-b]pyridin]-4′-yl)amino)-1-hydroxyethyl)-3-buten-1-yl)-2-(methyloxy)propanamide], the IC50 in test [1] (HEK293, 24 h) came to 637 nM; in test [2] it was 145 nM.
As to `C=CC[C@H](NC(=O)c1cccnc1)[C@H](O)CN[C@H]1CC2(CCC2)Oc2ncc(CC(C)(C)C)cc21` [Example 96, N-((1S)-1-((1R)-2-(((4′S)-6′-(2,2-dimethylpropyl)-3′,4′-dihydrospiro[cyclobutane-1,2′-pyrano[2,3-b]pyridin]-4′-yl)amino)-1-hydroxyethyl)-3-buten-1-yl)-3-pyridinecarboxamide], the concentration for half-maximal inhibition (IC50) in test [1] (HEK293, 24 h) was found to be 135 nM; in test [2], 68 nM.
As to `C=CC[C@H](NC(=O)c1cncs1)[C@H](O)CN[C@H]1CC2(CCC2)Oc2ncc(CC(C)(C)C)cc21` [Example 97, N-((1S)-1-((1R)-2-(((4′S)-6′-(2,2-dimethylpropyl)-3′,4′-dihydrospiro[cyclobutane-1,2′-pyrano[2,3-b]pyridin]-4′-yl)amino)-1-hydroxyethyl)-3-buten-1-yl)-1,3-thiazole-5-carboxamide], the IC50 is 201 nM in test [1] (HEK293, 24 h) and 61 nM in test [2].
As to `C=CC[C@H](NC(=O)c1cnccn1)[C@H](O)CN[C@H]1CC2(CCC2)Oc2ncc(CC(C)(C)C)cc21` [Example 98, N-((1S)-1-((1R)-2-(((4′S)-6′-(2,2-dimethylpropyl)-3′,4′-dihydrospiro[cyclobutane-1,2′-pyrano[2,3-b]pyridin]-4′-yl)amino)-1-hydroxyethyl)-3-buten-1-yl)-2-pyrazinecarboxamide], the 50% inhibitory concentration (IC50) in test [1] (HEK293, 24 h) stood at 1680 nM; in test [2], 741 nM.
For `C=CC[C@H](NC(=O)c1ccccc1F)[C@H](O)CN[C@H]1CC2(CCC2)Oc2ncc(CC(C)(C)C)cc21` [Example 99, N-((1S)-1-((1R)-2-(((4′S)-6′-(2,2-dimethylpropyl)-3′,4′-dihydrospiro[cyclobutane-1,2′-pyrano[2,3-b]pyridin]-4′-yl)amino)-1-hydroxyethyl)-3-buten-1-yl)-2-fluorobenzamide] the same measures were 1460 nM and 339 nM.
In the case of `C=C(C)C[C@H](NC(=O)CF)[C@H](O)CN[C@H]1CC2(CCC2)Oc2ncc(CC(C)(C)C)cc21` [Example 100, N-((1S)-1-((1R)-2-(((4′S)-6′-(2,2-dimethylpropyl)-3′,4′-dihydrospiro[cyclobutane-1,2′-pyrano[2,3-b]pyridin]-4′-yl)amino)-1-hydroxyethyl)-3-methyl-3-buten-1-yl)-2-fluoroacetamide], the IC50 in test [1] (HEK293) stood at 3330 nM; in test [2], 3650 nM.
Turning to `C=C(C)C[C@H](NC(=O)c1ccc2c(c1)OC(F)(F)O2)[C@H](O)CN[C@H]1CC2(CCC2)Oc2ncc(CC(C)(C)C)cc21` [Example 101, N-((1S)-1-((1R)-2-(((4′S)-6′-(2,2-dimethylpropyl)-3′,4′-dihydrospiro[cyclobutane-1,2′-pyrano[2,3-b]pyridin]-4′-yl)amino)-1-hydroxyethyl)-3-methyl-3-buten-1-yl)-2,2-difluoro-1,3-benzodioxole-5-carboxamide], the IC50 is ≥ 10000 nM in test [1] (HEK293, 24 h) and 9880 nM in test [2].
For `C=CC[C@H](NC(=O)c1ccc2c(c1)OCO2)[C@H](O)CN[C@H]1CC2(CCC2)Oc2ncc(CC(C)(C)C)cc21` [Example 102, N-((1S)-1-((1R)-2-(((4′S)-6′-(2,2-dimethylpropyl)-3′,4′-dihydrospiro[cyclobutane-1,2′-pyrano[2,3-b]pyridin]-4′-yl)amino)-1-hydroxyethyl)-3-buten-1-yl)-1,3-benzodioxole-5-carboxamide] the same measures were 707 nM and 75 nM.
Turning to `C=CC[C@H](NC(=O)c1cccc2c1OCO2)[C@H](O)CN[C@H]1CC2(CCC2)Oc2ncc(CC(C)(C)C)cc21` [Example 103, N-((1S)-1-((1R)-2-(((4′S)-6′-(2,2-dimethylpropyl)-3′,4′-dihydrospiro[cyclobutane-1,2′-pyrano[2,3-b]pyridin]-4′-yl)amino)-1-hydroxyethyl)-3-buten-1-yl)-1,3-benzodioxole-4-carboxamide], the 50% inhibitory concentration (IC50) in test [1] (HEK293, 24 h) was found to be 2540 nM; in test [2], 216 nM.
For `C=CC[C@H](NC(=O)c1ccc2c(c1)OC(F)(F)O2)[C@H](O)CN[C@H]1CC2(CCC2)Oc2ncc(CC(C)(C)C)cc21` [Example 104, N-((1S)-1-((1R)-2-(((4′S)-6′-(2,2-dimethylpropyl)-3′,4′-dihydrospiro[cyclobutane-1,2′-pyrano[2,3-b]pyridin]-4′-yl)amino)-1-hydroxyethyl)-3-buten-1-yl)-2,2-difluoro-1,3-benzodioxole-5-carboxamide] the same measures were 2360 nM and 154 nM.
